# Test results: patent US7919133B2, “Substituted cyclopropanecarboxylic acid (3-methyl-cyclohexyl)amide as flavoring substance” (SYMRISE GmbH & Co. KG, priority 2007, dated 2011)
# Key:
# [1] = among substituted benzoic amides of WO 2006/099762; cited from earlier work
# [2] = Tasting in the applicant's own investigations; type: in vivo; details: for Umami-properties: in vivo
# [3] = Panel tasting in 0.5% American beef extract / beef broth as base (FIG. 1, scores 0 to 6); type: in vivo
# From the text: In spider diagram attached as FIG. 1, American beef broth is exemplarily compared as a base, with firstly such a base with an addition of 5 ppm of mixture of cyclopropanecarboxylic acid-((1S,2S,5R)-2-isopropyl-5-methyl-cyclohexyl)-amide (11) and Cyclopropanecarboxylic acid-((1R,2R,5S)-2-isopropyl-5-methyl-cyclohexyl)-amide (12) (mixing ratio of 1:1) and secondly with such a base with an addition of 0.05 wt.-% of MSG.
# With the aid of tasting by a panel of trained subjects, the taste of a 0.5% American beef extract as base (light grey line) was compared with the taste of firstly, such a base, to which 5 ppm of mixture consisting of cyclopropanecarboxylic acid-((1S,2S,5R)-2-isopropyl-5-methyl-cyclohexyl)amide (11) and cyclopropanecarboxylic acid-((1R,2R,5S)-2-isopropyl-5-methyl-cyclohexyl)amide (12) was added (solid line), and secondly such a base, to which 0.05 wt.-% of MSG was added (broken line).
# The subjects rated the strength of the stated trend of taste by ranking of scores on a scale from 0 (no corresponding taste) to 6 (very strong corresponding taste). The average values of respective scores are illustrated.
# [4] = as given in US 2004/0202760 and US 2004/0202619; cited from earlier work
smiles,measurement,setting,value
COC(=O)c1ccc(C(=O)NC2CC(C)CCC2C(C)C)cc1 (centres unmarked),cooling effect,[1],strongest ascertained cooling effect
"CC(C)[C@@H]1CC[C@@H](C)C[C@@H]1NC(=O)C1CC1 [(11), Cyclopropanecarboxylic acid-((1S,2S,5R)-2-isopropyl-5-methyl-cyclohexyl)amide]",Umami-properties,[2],interesting and strong Umami-properties
"CC(C)[C@H]1CC[C@H](C)C[C@H]1NC(=O)C1CC1 [(12), Cyclopropanecarboxylic acid-((1R,2R,5S)-2-isopropyl-5-methyl-cyclohexyl)amide]",Umami-properties,[2],interesting and strong Umami-properties
O=C(NC1CCCCC1)C1CC1 [Cyclopropanecarboxylic acid cyclohexyl amide],creating or enhancing of an Umami taste impression,[3],no creating or enhancing of an Umami taste impression could be verified
same,taste rating,[2]; tasting in own investigations,taste-neutral
"CC/C=C\CC/C=C/C(=O)NC1CC1 [N-cyclopropyl-E2,Z6-nonadiene amide]",sensory impression,[4],effect similar to MSG
"CCCCC/C=C\CC/C=C/C(=O)NCC [N-ethyl-E2,Z6-dodecadiene amide]",sensory impression,[4],effect similar to MSG
"CC/C=C\CC/C=C/C(=O)NCC [N-ethyl-E2,Z6-nonadiene amide]",sensory impression,[4],effect similar to MSG
